Series [1] has as its system S. epidermidis biofilm cells. Nature of the series: Biofilm cell viability, MTT assay. In kind it is cell-based, Staphylococcus epidermidis. The note with it: 24 h. The method, then:
The biofilm cell viability after treated with hybrid peptide BiF2_5K7K was examined by 3-(4,5-Dimethylthiazol-2-yl)-2,5-Diphenyltetrazolium bromide or MTT colorimetric assays. Bacterial suspensions (10^6 CFU/mL in TSB) and peptide at concentration ranging from 0.98 to 250 µg/mL in 10 mM PBS were incubated in 96-well microtiter plates at 37°C for 24 h. After incubation, supernatant was discarded, followed by the addition of 0.4 mg/mL MTT (Sigma-Aldrich, USA) in 10 mM PBS to each well and incubated for 3 h at 37°C. Subsequently, supernatant was removed and dimethyl sulfoxide (DMSO; Fisher BioReagents™, UK) was added to dissolve the formed formazan crystals in wells. At a wavelength of 570 nm, the optical densities of the solutions were then determined by microplate reader.

Series [2] relates to Salmonella Typhimurium ATCC 13311. Nature of the series: Broth microdilution MIC / MBC. In kind it is cell-based. The note with it: 24 h, 37°C. The method, then: (§1) The minimal inhibitory concentrations (MICs) of peptide derivatives versus planktonic bacteria were assessed using a modification of the broth microdilution assay previously described in the National Committee for Clinical Laboratory Standards (NCCLS). In brief, bacteria at mid-logarithmic growth were collected by centrifugation at 2,500 × g for 5 min. Subsequently, the pellet was resuspended and adjusted in Mueller-Hinton Broth (MHB; BD Bacto™, USA) to an OD620 of 0.05. Fifty µL of bacterial suspensions was transferred to 96-well microplates. Later, 50 µL of peptide derivatives at 0.98–250 µg/mL in 10 mM PBS, was added to wells and incubated for 24 h at 37°C with continuous shaking at 220 rpm. […] The experiments were done in three technical replicates and repeated independently.
(§2) To determine minimal bactericidal concentrations (MBCs) of the peptides, 50 µL of supernatant from non-turbid wells was plated on TSA, and the number of colony-forming units (CFUs) was observed after 24 h of incubation at 37°C. MBC was defined as the minimum concentration of peptide at which no bacterial colony was observed on the plate.
(Broth dilution looks for growth in wells or tubes with falling amounts of substance.)

Series [3] relates to Listeria monocytogenes 10403s. As to the kind of experiment: Broth microdilution MIC / MBC. Format: cell-based. The settings on record: 24 h, 37°C. The method, then:
as §1, §2

The test system of series [4] is Staphylococcus aureus ATCC 25923. As to the kind of experiment: Broth microdilution MIC / MBC. Format: cell-based. The settings on record: 24 h, 37°C. The method, then: as §1, §2
The test system of series [5] is Staphylococcus epidermidis ATCC 35984. As to the kind of experiment: Broth microdilution MIC / MBC. In kind it is cell-based. The settings on record: plating of non-turbid wells on TSA, 24 h, 37°C. The method, then: as §1, §2
In series [6] the test system is Pseudomonas aeruginosa ATCC 27853. Nature of the series: Broth microdilution MIC / MBC. The settings on record: 24 h, 37°C. In kind it is cell-based. The method, then: as §1, §2
Series [7] relates to Escherichia coli ATCC 25922. Nature of the series: Broth microdilution MIC / MBC. The note with it: 24 h, 37°C. In kind it is cell-based. The method, then:
as §1, §2

In series [8] the test system is Acinetobacter baumanii MT strain. Nature of the series: Broth microdilution MIC / MBC. Format: cell-based. The note with it: 24 h, 37°C. The method, then:
as §1, §2

Series [9] has as its system Bacillus cereus ATCC 11778. As to the kind of experiment: Broth microdilution MIC / MBC. In kind it is cell-based. The note with it: 24 h, 37°C. The protocol:
as §1, §2

In series [10] the test system is human red blood cells (hRBCs). Nature of the series: Hemolysis activity (hemoglobin release). Format: cell-based. The settings on record: 1 h, 37°C. The protocol: The effect of peptides on human red blood cells (hRBCs) was assessed by observing the release of hemoglobin upon treated with peptide. Briefly, the hRBCs were obtained from healthy volunteers and subsequently diluted in 10 mM PBS to a concentration of 2% hRBCs. An equal volume of 2% hRBCs and peptide at concentration of 0.98–250 µg/mL in 10 mM PBS mixtures were incubated for 1 h at 37°C. Following incubation, the suspension was centrifuged, then supernatants were collected and transferred to 96-well microplates for measurement of absorbance at OD of 405 nm (OD405). This study was performed in accordance with the Thammasat University Ethics Committee (COA No. 066/2562). Written informed consent was obtained from all volunteers.

The test system of series [11] is preformed S. epidermidis biofilm. Nature of the series: Biofilm eradication activity (peg lid, colony counting). Format: cell-based, Staphylococcus epidermidis. The note with it: 24 h treatment. The protocol:
The eradication capacity of BiF2_5K7K against preformed biofilm was examined as previously described with some modifications. In brief, suspensions of S. epidermidis with a final density of 10^6 CFU/mL were added to 96-well microplates, then covered with 96-peg lids (Nunc™ Immuno TSP Lids, Denmark). Following 24 h of incubation at 37°C, the peg lids were washed with 0.85% NaCl to remove culture media and non-adherent cells. Afterwards, the biofilms adherent to peg lids were incubated at 37°C for 24 h with different concentrations of peptide derivatives. The peg lids were subsequently washed and placed on new plates containing PBS. The biofilms on the lid were removed using a water bath sonicator (Bandelin SONOREX™, Germany). Biofilms were subsequently diluted and then placed on TSA. Minimum biofilm eradication concentrations at 50% and 90% (MBEC50 and MBEC90) refer to the concentration of the peptide at which established biofilm was eradicated by at least 50% and 90%, respectively.

Series [12] has as its system S. epidermidis biofilm matrix. As to the kind of experiment: Confocal laser scanning microscopy of biofilm formation (AAA model). The settings on record: at MBIC50 (7.81 µg/mL), 24 h; p-value < 0.001. Format: cell-based, Staphylococcus epidermidis. The method, then:
An Amsterdam active attachment (AAA) model was used to assess the effectiveness of BiF2_5K7K to inhibit biofilm formation as previously described. In a 24-well microplate, various concentrations of BiF2_5K7K were incubated overnight with 10^7 CFU/mL of S. epidermidis. The plate was then covered with a sanitary stainless-steel lid containing double-glass coverslips. Following 24 h of incubation at 37°C, the biofilms were washed, and then […] green Alexa-ConA (Sigma-Aldrich, USA) was applied for 30 min to stain the biofilms. After staining, biofilms were fixed for 3 h with 2.5% glutaraldehyde. Biofilm images were acquired using a confocal laser scanning microscope (CLSM; Carl-Zeiss/LSM800, Zeiss, Germany). The fluorescence intensity of each test was analysed using ZEN 2.1 (blue edition) software.

[13] abbreviates: broth microdilution, MHB, 0.98-250 µg/mL, visible inspection.
Where [14] appears, read: plating of non-turbid wells on TSA.

Structures are written as SMILES. Values after ≈ are worked out from the molar mass of the structure shown. Residues, ends and D or L forms follow the SMILES beside them. Some results are limits rather than exact numbers.

`CC[C@H](C)[C@H](NC(=O)[C@H](CCCCN)NC(=O)[C@H](CCCCN)NC(=O)[C@@H](NC(=O)[C@H](CC(C)C)NC(=O)[C@@H](N)Cc1ccccc1)C(C)C)C(=O)N[C@@H](CCCCN)C(=O)N[C@@H](CCCCN)C(=O)N[C@H](C(=O)N[C@@H](CC(C)C)C(=O)N[C@@H](CCCNC(=N)N)C(=O)N[C@@H](CCCNC(=N)N)C(N)=O)[C@@H](C)CC` [BiF2_5K7K] (H-FLVKKIKKILRR-NH2; N-terminus assumed): the “viability of biofilm cells” value in series [1] (at MIC (15.63 µg/mL)) is “remained viable”; in series [1] (at higher concentrations (>15.63 µg/mL)), “no growth of biofilm cells”. Moreover, the MIC in [2] (setting [13]) is 31.25 µg/mL (≈ 20.3 µM); in [3] (setting [13]), 31.25 µg/mL (≈ 20.3 µM); in [4] (setting [13]), > 250 µg/mL; in series [6] (setting [13]), 62.5 µg/mL (≈ 40.6 µM); in series [7] (setting [13]), 250 µg/mL (≈ 162 µM); in series [8] (setting [13]), 31.2 µg/mL (≈ 20.3 µM). Besides, in [9] (setting [13]), the MIC came out at 250 µg/mL (≈ 162 µM). In addition, the MBC was 62.5 µg/mL (≈ 40.6 µM) in series [2] (setting [14]); 62.5 µg/mL (≈ 40.6 µM) in [3] (setting [14]); > 250 µg/mL in series [4] (setting [14]); 31.25 µg/mL (≈ 20.3 µM) in series [5]; 125 µg/mL (≈ 81.1 µM) in series [6] (setting [14]); 250 µg/mL (≈ 162 µM) in series [7] (setting [14]). Further, the results for the MBC in series [8] (setting [14]) and in series [9] (setting [14]) were 31.2 µg/mL (≈ 20.3 µM) and 250 µg/mL (≈ 162 µM), respectively. In addition, in [10] (at 250 µg/mL (maximum concentration tested)), the hemolytic activity entry is “less than 10%”. The “MHC, minimum hemolytic concentration” value in series [10] (peptide concentration causing 10% hemolysis of hRBCs, 2% hRBCs in 10 mM PBS, OD405) was >250 µg/mL. The compound also showed an MBEC50 in series [11] (24 h preformed biofilm on peg lids, 37°C) of 31.25 µg/mL. The compound further came in with an MBEC90 in [11] (more than 90% of mature biofilm eradicated) of 125 µg/mL. The “fluorescence intensity of Alexa Fluor 488 stained biofilm vs untreated control” value in series [12] was “significantly lower”.

The MIC is the smallest concentration in the dilution series that meets the test's criterion for growth inhibition. Lower therefore signals inhibition by little substance. By MBC is commonly meant the lowest tested concentration that kills the bacteria rather than only halting them. Read a low MBC as more potent killing.

The record behind these values is PMC11100219, “Dual-function antimicrobial-antibiofilm peptide hybrid to tackle biofilm-forming Staphylococcus epidermidis” (Annals of Clinical Microbiology and Antimicrobials, 2024).
